The source of these data is US9926282B2, “Phthalazinones and isoquinolinones as rock inhibitors” (BRISTOL-MYERS SQUIBB COMPANY, priority 2013, dated 2018).

The target of one assay is ROCK1 (Homo sapiens (Human), UniProt Q13464). The experiment in a line: ROCK assay (LABCHIP peptide phosphorylation), ROCK1. The conditions noted are these: 5 μM ATP, 1.5 μM peptide substrate; read-out: ROCK1 IC50. In kind it is biochemical.
A further assay concerns the target ROCK2 (Homo sapiens (Human), UniProt O75116). The experiment in a line: ROCK assay (LABCHIP peptide phosphorylation), ROCK2. It is filed as biochemical. The conditions noted are these: 5 μM ATP, 1.5 μM peptide substrate.

Chain of ROCK2 (O75116 whole entry, species assumed): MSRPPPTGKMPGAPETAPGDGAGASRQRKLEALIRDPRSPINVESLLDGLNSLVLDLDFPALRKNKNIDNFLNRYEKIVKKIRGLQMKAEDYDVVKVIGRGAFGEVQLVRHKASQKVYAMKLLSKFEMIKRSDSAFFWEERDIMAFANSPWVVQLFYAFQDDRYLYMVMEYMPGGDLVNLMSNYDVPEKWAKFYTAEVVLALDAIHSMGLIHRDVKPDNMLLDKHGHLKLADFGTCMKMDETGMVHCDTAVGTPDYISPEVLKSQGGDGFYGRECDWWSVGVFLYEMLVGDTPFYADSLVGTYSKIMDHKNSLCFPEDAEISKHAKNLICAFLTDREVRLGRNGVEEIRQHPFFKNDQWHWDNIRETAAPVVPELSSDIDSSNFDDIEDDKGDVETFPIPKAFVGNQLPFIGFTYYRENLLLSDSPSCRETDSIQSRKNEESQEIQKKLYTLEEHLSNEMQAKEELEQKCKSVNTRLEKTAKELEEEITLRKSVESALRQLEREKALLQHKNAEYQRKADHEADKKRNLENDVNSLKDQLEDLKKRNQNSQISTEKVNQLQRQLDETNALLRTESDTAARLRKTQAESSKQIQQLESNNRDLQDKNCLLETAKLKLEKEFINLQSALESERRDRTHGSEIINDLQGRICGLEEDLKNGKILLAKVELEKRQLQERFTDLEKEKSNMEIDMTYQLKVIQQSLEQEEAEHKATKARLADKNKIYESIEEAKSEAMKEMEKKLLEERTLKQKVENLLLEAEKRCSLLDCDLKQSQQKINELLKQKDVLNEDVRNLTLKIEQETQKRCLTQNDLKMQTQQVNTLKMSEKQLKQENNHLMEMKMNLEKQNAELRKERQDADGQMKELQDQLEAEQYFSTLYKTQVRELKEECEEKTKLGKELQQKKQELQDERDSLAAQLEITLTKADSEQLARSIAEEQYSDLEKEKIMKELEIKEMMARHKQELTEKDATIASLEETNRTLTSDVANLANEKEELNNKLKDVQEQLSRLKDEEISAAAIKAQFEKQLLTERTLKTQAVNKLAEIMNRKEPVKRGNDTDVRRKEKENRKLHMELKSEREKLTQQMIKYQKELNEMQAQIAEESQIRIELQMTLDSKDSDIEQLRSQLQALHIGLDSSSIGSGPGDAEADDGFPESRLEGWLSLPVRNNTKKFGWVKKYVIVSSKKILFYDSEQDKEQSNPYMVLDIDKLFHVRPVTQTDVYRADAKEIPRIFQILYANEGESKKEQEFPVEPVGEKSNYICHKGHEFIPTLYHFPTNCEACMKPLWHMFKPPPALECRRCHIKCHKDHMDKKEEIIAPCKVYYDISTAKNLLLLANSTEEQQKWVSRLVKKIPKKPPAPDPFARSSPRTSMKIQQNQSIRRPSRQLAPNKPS
Chain of ROCK1 (Q13464 whole entry, species assumed): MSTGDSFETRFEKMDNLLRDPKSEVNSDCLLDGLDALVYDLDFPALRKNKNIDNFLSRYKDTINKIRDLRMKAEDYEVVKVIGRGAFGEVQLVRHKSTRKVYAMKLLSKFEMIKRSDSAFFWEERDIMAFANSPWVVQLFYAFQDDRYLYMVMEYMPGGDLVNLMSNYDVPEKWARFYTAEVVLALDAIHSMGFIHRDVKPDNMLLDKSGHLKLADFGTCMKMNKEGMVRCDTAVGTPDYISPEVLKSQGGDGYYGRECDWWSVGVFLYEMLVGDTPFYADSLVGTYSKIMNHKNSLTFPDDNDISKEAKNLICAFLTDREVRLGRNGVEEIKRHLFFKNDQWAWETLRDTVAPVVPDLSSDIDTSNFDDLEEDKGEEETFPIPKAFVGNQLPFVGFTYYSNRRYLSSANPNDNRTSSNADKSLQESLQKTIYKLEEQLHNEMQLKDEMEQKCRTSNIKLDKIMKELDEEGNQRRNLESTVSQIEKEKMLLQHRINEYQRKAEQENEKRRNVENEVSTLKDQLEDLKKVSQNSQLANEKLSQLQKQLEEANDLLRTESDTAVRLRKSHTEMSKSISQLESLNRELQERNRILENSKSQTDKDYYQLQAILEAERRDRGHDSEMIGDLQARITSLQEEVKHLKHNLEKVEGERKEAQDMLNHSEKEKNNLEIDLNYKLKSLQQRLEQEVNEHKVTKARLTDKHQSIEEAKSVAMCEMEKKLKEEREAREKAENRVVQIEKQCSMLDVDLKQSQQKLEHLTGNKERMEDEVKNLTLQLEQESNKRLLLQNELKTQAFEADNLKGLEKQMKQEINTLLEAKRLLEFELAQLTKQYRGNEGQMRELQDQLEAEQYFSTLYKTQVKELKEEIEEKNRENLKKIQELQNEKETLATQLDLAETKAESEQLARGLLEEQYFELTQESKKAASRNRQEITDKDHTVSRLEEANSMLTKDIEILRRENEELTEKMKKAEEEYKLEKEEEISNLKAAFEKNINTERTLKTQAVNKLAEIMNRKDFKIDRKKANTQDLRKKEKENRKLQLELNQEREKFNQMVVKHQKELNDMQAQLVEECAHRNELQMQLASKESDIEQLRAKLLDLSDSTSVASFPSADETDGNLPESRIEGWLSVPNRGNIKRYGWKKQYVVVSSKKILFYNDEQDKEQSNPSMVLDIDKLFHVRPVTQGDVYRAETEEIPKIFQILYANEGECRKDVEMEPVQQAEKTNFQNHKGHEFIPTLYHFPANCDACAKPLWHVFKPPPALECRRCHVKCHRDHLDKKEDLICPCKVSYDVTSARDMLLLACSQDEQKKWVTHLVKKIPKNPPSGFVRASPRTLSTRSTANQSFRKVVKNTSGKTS

`O=C(Nc1ccc(-c2n[nH]c(=O)c3ccccc23)cc1)c1ccc(-n2cncn2)cc1` [Example 92, N-[4-(4-oxo-3,4-dihydrophthalazin-1-yl)phenyl]-4-(1H-1,2,4-triazol-1-yl)benzamide]: the figures for the IC50 at ROCK1 and at ROCK2 were 101 to 1000 nM and 0.1 to 100 nM, respectively.

Take `Cc1cc(C(=O)Nc2ccc(-c3n[nH]c(=O)c4ccccc34)cc2)nn1C` [Example 205, 1,5-dimethyl-N-[4-(4-oxo-3,4-dihydrophthalazin-1-yl)phenyl]-1H-pyrazole-3-carboxamide]: the IC50 (as a rule, the concentration that gives 50% inhibition) at ROCK1 is 101 to 1000 nM; against ROCK2 it was 0.1 to 100 nM.

For `Cc1cc(C(=O)Nc2ccc(-c3n[nH]c(=O)c4ccccc34)cc2)nn1-c1ccccc1` [Example 213, 5-methyl-N-[4-(4-oxo-3,4-dihydrophthalazin-1-yl)phenyl]-1-phenyl-1H-pyrazole-3-carboxamide], the IC50 on ROCK1 and against ROCK2 was 0.1 to 100 nM each time.

Consider `O=C(Cc1ccc(-c2n[nH]c(=O)c3ccccc23)cc1)N1CCc2ccc(C(F)(F)F)cc21` [Example 35, 4-(4-{2-oxo-2-[6-(trifluoromethyl)-2,3-dihydro-1H-indol-1-yl]ethyl}phenyl)-1,2-dihydrophthalazin-1-one], for which the concentration for half-maximal inhibition (IC50) at ROCK1 is 101 to 1000 nM; on ROCK2, 0.1 to 100 nM.

Consider `O=C(c1ccc2c(c1)CCN2C(=O)Cc1ccc(-c2n[nH]c(=O)c3ccccc23)cc1)N1CCC(O)CC1` [Example 294, 4-(4-{2-[5-(4-hydroxypiperidine-1-carbonyl)-2,3-dihydro-1H-indol-1-yl]-2-oxoethyl}phenyl)-1,2-dihydrophthalazin-1-one], for which the IC50 on ROCK1 was in the range of 101 to 1000 nM; against ROCK2, 0.1 to 100 nM.

`Cc1c(C(=O)Nc2ccc(-c3n[nH]c(=O)c4ccccc34)cc2)cnn1-c1cccc(Cl)c1F` [Example 202, 1-(3-chloro-2-fluorophenyl)-5-methyl-N-[4-(4-oxo-3,4-dihydrophthalazin-1-yl)phenyl]-1H-pyrazole-4-carboxamide]: the IC50 on ROCK1 and against ROCK2 was 0.1 to 100 nM in each case.

Take `Cc1cc(NC(=O)c2cnn3ccccc23)ccc1-c1n[nH]c(=O)c2ccccc12` [Example 310, N-[3-methyl-4-(4-oxo-3,4-dihydrophthalazin-1-yl)phenyl]pyrazolo [1,5-a]pyridine-3-carboxamide]: the half-maximal inhibitory concentration (IC50) on ROCK1 was in the range of 101 to 1000 nM; against ROCK2, 0.1 to 100 nM.

Consider `COc1cccc2cc(C(=O)Nc3ccc(-c4n[nH]c(=O)c5ccccc45)c(C)c3)[nH]c12` [Example 309, 7-methoxy-N-[3-methyl-4-(4-oxo-3,4-dihydrophthalazin-1-yl)phenyl]-1H-indole-2-carboxamide], for which the IC50 on ROCK1 and at ROCK2 was 0.1 to 100 nM in each case.

On to `O=C(Cc1ccc(-c2n[nH]c(=O)c3ccccc23)cc1)N1CCc2ccc(O[C@@H]3CCOC3)cc21` [Example 274, 4-[4-(2-oxo-2-{6-[(3R)-oxolan-3-yloxy]-2,3-dihydro-1H-indol-1-yl}ethyl)phenyl]-1,2-dihydrophthalazin-1-one], for which the IC50 on ROCK1 and at ROCK2 was 0.1 to 100 nM in each case.

Turning to `O=C(Nc1ccc(-c2n[nH]c(=O)c3ccccc23)cc1)c1noc2ccccc12` [Example 118, N-[4-(4-oxo-3,4-dihydrophthalazin-1-yl)phenyl]-1,2-benzoxazole-3-carboxamide], the IC50 is 101 to 1000 nM at ROCK1 and 0.1 to 100 nM on ROCK2.

Take `O=C(Nc1ccc(-c2n[nH]c(=O)c3ccccc23)cc1)c1nn(CC2CCOCC2)c2ccccc12` [Example 150, 1-(oxan-4-ylmethyl)-N-[4-(4-oxo-3,4-dihydrophthalazin-1-yl)phenyl]-1H-indazole-3-carboxamide]: the IC50 at ROCK1 and against ROCK2 was 0.1 to 100 nM each time.

As for `Cn1c(C(=O)Nc2ccc(-c3n[nH]c(=O)c4ccccc34)cc2)cc2cc(Cl)ccc21` [Example 96, 5-chloro-1-methyl-N-[4-(4-oxo-3,4-dihydrophthalazin-1-yl)phenyl]-1H-indole-2-carboxamide], the IC50 on ROCK1 was in the range of 101 to 1000 nM; against ROCK2, 0.1 to 100 nM.

Turning to `O=C(Cc1ccc(-c2n[nH]c(=O)c3ccccc23)c(F)c1)N1Cc2ccccc2C1` [Example 37, 4-(2-Fluoro-4-(2-(isoindolin-2-yl)-2-oxoethyl)phenyl)phthalazin-1(2H)-one], the IC50 on ROCK1 was 101 to 1000 nM; on ROCK2, 0.1 to 100 nM.

For the compound `O=C(Cc1ccc(-c2c[nH]c(=O)c3ccccc23)c(F)c1)N1CCc2ccccc21` [Example 287, 4-(2-Fluoro-4-(2-(indolin-1-yl)-2-oxoethyl)phenyl)isoquinolin-1 (2H)-one], the IC50 at ROCK1 and against ROCK2 was 0.1 to 100 nM each time.

Regarding `CN1CCN(C(=O)COc2ccc3c(c2)N(C(=O)Cc2ccc(-c4n[nH]c(=O)c5ccccc45)cc2)CC3)CC1` [Example 299, 4-(4-(2-(6-(2-(4-Methylpiperazin-1-yl)-2-oxoethoxy)indolin-1-yl)-2-oxoethyl)phenyl)phthalazin-1(2H)-one], the results for the 50% inhibitory concentration (IC50) at ROCK1 and against ROCK2 were 101 to 1000 nM and 0.1 to 100 nM, respectively.

`O=C(Nc1ccc(-c2n[nH]c(=O)c3ccccc23)cc1)c1n[nH]c2ccc(Cl)cc12` [Example 114, 5-chloro-N-[4-(4-oxo-3,4-dihydrophthalazin-1-yl)phenyl]-1H-indazole-3-carboxamide]: the IC50 was 101 to 1000 nM on ROCK1 and 0.1 to 100 nM on ROCK2.

Regarding `CC(C)(O)COc1ccn2ncc(C(=O)Nc3ccc(-c4n[nH]c(=O)c5ccccc45)cc3)c2c1` [Example 181, 5-(2-hydroxy-2-methylpropoxy)-N-[4-(4-oxo-3,4-dihydrophthalazin-1-yl)phenyl]pyrazolo[1,5-a]pyridine-3-carboxamide], the IC50 at ROCK1 lay in the range of 101 to 1000 nM; against ROCK2 it was 0.1 to 100 nM.

As for `COC(=O)N1CC(Cn2nc(C(=O)Nc3ccc(-c4n[nH]c(=O)c5ccccc45)cc3)c3ccccc32)C1` [Example 341, Methyl 3-((3-((4-(4-oxo-3,4-dihydrophthalazin-1-yl)phenyl)carbamoyl)-1H-indazol-1-yl)methyl)azetidine-1-carboxylate], the IC50 on ROCK1 and at ROCK2 was 0.1 to 100 nM throughout.

Regarding `COCCOc1ccc2c(C(=O)Nc3ccc(-c4n[nH]c(=O)c5ccccc45)cc3)cnn2c1` [Example 175, 6-(2-methoxyethoxy)-N-[4-(4-oxo-3,4-dihydrophthalazin-1-yl)phenyl]pyrazolo[1,5-a]pyridine-3-carboxamide], the IC50 at ROCK1 and against ROCK2 was 0.1 to 100 nM in each case.

With `COC(=O)COc1ccc2c(c1)N(C(=O)Cc1ccc(-c3n[nH]c(=O)c4ccccc34)cc1)CC2` [Example 283, methyl 2-[(1-{2-[4-(4-oxo-3,4-dihydrophthalazin-1-yl)phenyl]acetyl}-2,3-dihydro-1H-indol-6-yl)oxy]acetate], the IC50 at ROCK1 and on ROCK2 was 0.1 to 100 nM each time.

In the case of `CN1CCN(C(=O)c2ccc3c(c2)N(C(=O)Cc2ccc(-c4n[nH]c(=O)c5ccccc45)cc2)CC3)CC1` [Example 292, 4-(4-{2-[6-(4-methylpiperazine-1-carbonyl)-2,3-dihydro-1H-indol-1-yl]-2-oxoethyl}phenyl)-1,2-dihydrophthalazin-1-one], the values for the IC50 on ROCK1 and against ROCK2 were 101 to 1000 nM and 0.1 to 100 nM, respectively.

`CCOc1cc(NC(=O)c2nn(CC(C)(C)O)c3ccccc23)ccc1-c1n[nH]c(=O)c2ccccc12` [Example 346, N-(3-Ethoxy-4-(4-oxo-3,4-dihydrophthalazin-1-yl)phenyl)-1-(2-hydroxy-2-methylpropyl)-1H-indazole-3-carboxamide]: the IC50 at ROCK1 lay within 1000 to 50000 nM; at ROCK2, 101 to 1000 nM.

For `O=C(Nc1ccc(-c2n[nH]c(=O)c3ccccc23)cc1)c1c2ccccc2nn1CC1COC1` [Example 143, 2-(oxetan-3-ylmethyl)-N-[4-(4-oxo-3,4-dihydrophthalazin-1-yl)phenyl]-2H-indazole-3-carboxamide], the IC50 at ROCK1 and at ROCK2 was 1000 to 50000 nM throughout.

`O=C(Nc1ccc(-c2n[nH]c(=O)c3ccccc23)cc1)c1ccn(-c2ccccc2)n1` [Example 226, N-[4-(4-oxo-3,4-dihydrophthalazin-1-yl)phenyl]-1-phenyl-1H-pyrazole-3-carboxamide]: the half-maximal inhibitory concentration (IC50) at ROCK1 and against ROCK2 was 0.1 to 100 nM each time.

Turning to `O=C(Nc1ccc(-c2n[nH]c(=O)c3ccccc23)cc1)c1cnn(Cc2ccccc2)c1` [Example 200, 1-benzyl-N-[4-(4-oxo-3,4-dihydrophthalazin-1-yl)phenyl]-1H-pyrazole-4-carboxamide], the half-maximal inhibitory concentration (IC50) on ROCK1 and on ROCK2 was 0.1 to 100 nM each time.

For the compound `O=C(Nc1ccc(-c2n[nH]c(=O)c3ccccc23)cc1)N1CC2(CCNCC2)c2ccccc21` [Example 371, N-(4-(4-Oxo-3,4-dihydrophthalazin-1-yl)phenyl)spiro[indoline-3,4′-piperidine]-1-carboxamide], the IC50 at ROCK1 and at ROCK2 was 101 to 1000 nM each time.

As to `O=C(Nc1ccc(-c2n[nH]c(=O)c3ccccc23)cc1)c1n[nH]c(-c2ccccn2)n1` [Example 237, N-[4-(4-oxo-3,4-dihydrophthalazin-1-yl)phenyl]-5-(pyridin-2-yl)-1H-1,2,4-triazole-3-carboxamide], the IC50 on ROCK1 lay within 101 to 1000 nM; at ROCK2, 0.1 to 100 nM.

Turning to `O=C(Cc1ccc(-c2n[nH]c(=O)c3ccccc23)cc1)N1CCc2ccc(OCCN3CCCC3)cc21` [Example 286, 4-[4-(2-oxo-2-{6-[2-(pyrrolidin-1-yl)ethoxy]-2,3-dihydro-1H-indol-1-yl}ethyl)phenyl]-1,2-dihydrophthalazin-1-one], the IC50 on ROCK1 fell in the range of 101 to 1000 nM; on ROCK2, 0.1 to 100 nM.

Take `Cc1cc(C(=O)Nc2ccc(-c3n[nH]c(=O)c4ccccc34)cc2)nn1Cc1ccccc1` [Example 208, 1-benzyl-5-methyl-N-[4-(4-oxo-3,4-dihydrophthalazin-1-yl)phenyl]-1H-pyrazole-3-carboxamide]: the IC50 at ROCK1 and on ROCK2 was 0.1 to 100 nM in each case.

For the compound `O=C(Nc1ccc(-c2n[nH]c(=O)c3ccccc23)cc1)C1Cc2ccccc2C1` [Example 44, N-(4-(4-Oxo-3,4-dihydrophthalazin-1-yl)phenyl)-2,3-dihydro-1H-indene-2-carboxamide], the IC50 was in the range of 1000 to 50000 nM on ROCK1 and 0.1 to 100 nM against ROCK2.
